From patent US8206751B2, “Class of therapeutics that enhance small molecule diffusion” (Diffusion Pharmaceuticals LLC, priority 2007, dated 2012)

Columns and labels:
[1] = Oxygen transport across the skin, transcutaneous oxygen monitor (TCOM); assay type: in vivo; conditions: normal rat switched to 100% oxygen at time zero, intravenous injection in the femoral vein, versus saline control
Experimental: Diffusion enhancing compounds such as kosmotropes increase the oxygen transport in vivo. In the subject experiment, the oxygen diffusing through the skin of a normal, non-diseased rat was measured using a transcutaneous oxygen monitor (TCOM). In the subject study, the rats breathed air and then were switched to breathing 100% oxygen at a time equal to zero. Also at time zero, the rats were injected (intravenously in the femoral vein) with either saline (control), trehalose, glycine betaine, or TSC.

[2] = TSC concentrations from 1 μmole/liter to around 200 μmole/liter; cited from earlier work
[3] = rats breathing 100% oxygen; cited from earlier work
[4] = Glucose diffusion through aqueous kosmotrope solutions, microinterferometric method; assay type: physicochemical; conditions: about 10 μM kosmotrope in water, 25° C., glucose 0.9 molar
Experimental: The diffusion of glucose through aqueous solutions of the above-mentioned kosmotropes was measured using a microinterferometric method, Secor, R. M., AIChE Journal, 11: 452-456, 1965.
In this method, a wedge is formed by two microscope slides that have a partial coating of a metal such as aluminum on the inner sides of the wedge. The wedge is placed on a microscope stage and illuminated from below using some source of monochromatic light, such as a helium-neon laser. As the light passes through the wedge, the partial coating of aluminum allows some light to be transmitted, while some is reflected. This creates constructive and destructive lines known as interference fringes. The interference fringes can then be magnified by a microscope and recorded with a camera.
Molecules of glucose will diffuse along a concentration gradient of glucose. Since the refractive index of the solution is related to the concentration of the glucose, the fringes at a given point will change with time. […]
Solutions of three kosmotropes (proline, betaine and trehalose) in water were made, so that the solutions contained about 10 μM of each of the kosmotropes. Using the trehalose solution as an example, the diffusivity of glucose through each of these solutions was then measured in the following way.
The trehalose solution was divided into two parts. […] A camera recorded the resulting fringe pattern. […]

SMILES | oxygen transport across the skin (TCOM readings) [1] | increase in the diffusivity of glucose through water [2] | brain oxygen level [3] | diffusivity of glucose through the solution compared with plain water [4]
C[N+](C)(C)CC(=O)O [glycine betaine, Glycine betaine] | increased oxygen transport across the skin |  |  | 
CC(/C=C/C=C(\C)C(=O)[O-])=C\C=C\C=C(C)\C=C\C=C(/C)C(=O)[O-].[Na+].[Na+] [TSC, trans sodium crocetinate] | increased oxygen transport across the skin | around 30% | further increased the brain oxygen level | 
OC[C@H]1O[C@H](O[C@H]2O[C@H](CO)[C@@H](O)[C@H](O)[C@H]2O)[C@H](O)[C@@H](O)[C@@H]1O [trehalose, Trehalose] | increased oxygen transport across the skin |  |  | greater than the value of glucose through plain water
